Laboratory results reported in patent US6872729B2, “Pyrimidinylbenzimidazole and triazinylbenzimidazole derivatives and agricultural/horticultural fungicides” (Kumiai Chemical Industry Co., Ltd., priority 1998, dated 2005).

Test system: not given
Assay: not given
Conditions: not given

| melting point | SMILES |
| --- | --- |
| 135 to 137 °C | COc1cc(OC)nc(-n2c(SC)nc3ccccc32)n1 [Compound I-4, 1-(4,6-dimethoxypyrimidin-2-yl)-2-methylthiobenzimidazole] |
| 114 to 117 °C | COc1cc(OC)nc(-n2c(S(C)(=O)=O)nc3ccccc32)n1 [Compound I-5, 1-(4,6-dimethoxypyrimidin-2-yl)-2-methylsulfonylbenzimidazole] |
| 121 to 122 °C | COc1cc(OC)nc(-n2c(OC)nc3ccccc32)n1 [Compound I-18, 1-(4,6-dimethoxypyrimidin-2-yl)-2-methoxybenzimidazole] |
| 163 to 166 °C | COc1cc(OC)nc(-n2c(C)nc3cc(C)ccc32)n1 [Compound I-186, 1-(4,6-dimethoxypyrimidin-2-yl)-2,5-dimethylbenzimidazole] |
| 173 to 176 °C | COc1nc(OC)nc(-n2c(C)nc3cc(Cl)ccc32)n1 [Compound I-215, 5-chloro-1-(4,6-dimethoxy-[1,3,5]triazin-2-yl)-2-methylbenzimidazole] |
| 145 to 148 °C | COc1cc(OC)nc(-n2c(Cl)nc3cc(C)ccc32)n1 [Compound I-258, 2-chloro-1-(4,6-dimethoxypyrimidin-2-yl)-5-methylbenzimidazole] |
| 146 to 149 °C | COc1nc(OC)nc(-n2c(Cl)nc3cc(Cl)ccc32)n1 [Compound I-277, 2,5-dichloro-1-(4,6-dimethoxy-[1,3,5]triazin-2-yl)benzimidazole] |
| 93 to 96 °C | COc1cc(OC)nc(-n2c(C(F)(F)F)nc3cc(C)ccc32)n1 [Compound I-298, 1-(4,6-dimethoxypyrimidin-2-yl)-5-methyl-2-trifluoromethylbenzimidazole] |
| 137 to 140 °C | COc1nc(OC)nc(-n2c(C(F)(F)F)nc3cc(C)ccc32)n1 [Compound I-312, 1-(4,6-dimethoxy-[1,3,5]triazin-2-yl)-5-methyl-2-trifluoromethylbenzimidazole] |
| > 300 °C | COc1cc(OC)nc(-n2c(N)nc3cc(C)ccc32)n1 [Compound I-362, 2-amino-1-(4,6-dimethoxypyrimidin-2-yl)-5-methylbenzimidazole] |
| 293 to 296 °C | COc1nc(OC)nc(-n2c(N)nc3cc(Cl)ccc32)n1 [Compound I-368, 2-amino-5-chloro-1-(4,6-dimethoxy-[1,3,5]triazin-2-yl)benzimidazole] |
| 114 to 116 °C | COc1ccnc(-n2cnc3ccccc32)n1 [Compound I-667, 1-(4-methoxypyrimidin-2-yl)-benzimidazole] |
| 176 to 179 °C | CSc1nc(SC)nc(-n2c(C)nc3ccccc32)n1 [Compound I-1042, 1-(4,6-dimethylthio-[1,3,5]triazin-2-yl)-2-methylbenzimidazole] |
| > 300 °C | Cc1nc2ccccc2n1-c1nc(Cl)nc(Cl)n1 [Compound I-1066, 1-(4,6-dichloro-[1,3,5]triazin-2-yl)-2-methylbenzimidazole] |

Test system: Erysiphe graminis
Assay: Test for preventive effect on wheat powdery mildew
Assay type: in vivo
Conditions: wheat (Norin-61-go) seedlings, 500 ppm active ingredient, preventive treatment; diseased area of first leaves 10 days after inoculation with Erysiphe graminis
Method in brief: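 Wheat seedlings (Norin-61-go), grown 8 days, were sprayed with wettable-powder solutions at 500 ppm active ingredient, air-dried, then inoculated by sprinkling Erysiphe graminis spores. Plants were kept at 20-25° C. Diseased area on first leaves was scored 10 days post-inoculation against a rating standard.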

| SMILES | Biological effectiveness |
| --- | --- |
| COc1cc(OC)nc(-n2c(C)nc3cc(C)ccc32)n1 [Compound I-186, 1-(4,6-dimethoxypyrimidin-2-yl)-2,5-dimethylbenzimidazole] | A (No diseased area) |
| COc1nc(OC)nc(-n2c(C)nc3cc(Cl)ccc32)n1 [Compound I-215, 5-chloro-1-(4,6-dimethoxy-[1,3,5]triazin-2-yl)-2-methylbenzimidazole] | A (No diseased area) |
| COc1cc(OC)nc(-n2c(Cl)nc3cc(C)ccc32)n1 [Compound I-258, 2-chloro-1-(4,6-dimethoxypyrimidin-2-yl)-5-methylbenzimidazole] | A (No diseased area) |
| COc1nc(OC)nc(-n2c(Cl)nc3cc(Cl)ccc32)n1 [Compound I-277, 2,5-dichloro-1-(4,6-dimethoxy-[1,3,5]triazin-2-yl)benzimidazole] | B (Diseased area of less than 25%) |
| COc1cc(OC)nc(-n2c(C(F)(F)F)nc3cc(C)ccc32)n1 [Compound I-298, 1-(4,6-dimethoxypyrimidin-2-yl)-5-methyl-2-trifluoromethylbenzimidazole] | A (No diseased area) |
| COc1nc(OC)nc(-n2c(C(F)(F)F)nc3cc(C)ccc32)n1 [Compound I-312, 1-(4,6-dimethoxy-[1,3,5]triazin-2-yl)-5-methyl-2-trifluoromethylbenzimidazole] | A (No diseased area) |
| COc1cc(OC)nc(-n2c(N)nc3cc(C)ccc32)n1 [Compound I-362, 2-amino-1-(4,6-dimethoxypyrimidin-2-yl)-5-methylbenzimidazole] | A (No diseased area) |
| COc1nc(OC)nc(-n2c(N)nc3cc(Cl)ccc32)n1 [Compound I-368, 2-amino-5-chloro-1-(4,6-dimethoxy-[1,3,5]triazin-2-yl)benzimidazole] | B (Diseased area of less than 25%) |
| COc1ccnc(-n2cnc3ccccc32)n1 [Compound I-667, 1-(4-methoxypyrimidin-2-yl)-benzimidazole] | B (Diseased area of less than 25%) |
| CCCOc1nc(C)nc(-n2c(C)nc3cc(C)ccc32)n1 [Compound I-831] | B (Diseased area of less than 25%) |
| Cc1cc(OC(C)C)nc(-n2cnc3ccccc32)n1 [Compound I-839] | A (No diseased area) |
| Cc1cc(OC(C)C)nc(-n2c(C)nc3ccccc32)n1 [Compound I-840] | B (Diseased area of less than 25%) |
| CCCCOc1cc(C)nc(-n2cnc3ccccc32)n1 [Compound I-872] | B (Diseased area of less than 25%) |
| C=CCOc1cc(C)nc(-n2cnc3ccccc32)n1 [Compound I-883] | A (No diseased area) |
| C=CCOc1cc(C)nc(-n2c(C)nc3ccccc32)n1 [Compound I-885] | B (Diseased area of less than 25%) |
| C#CCOc1cc(C)nc(-n2cnc3ccccc32)n1 [Compound I-894] | B (Diseased area of less than 25%) |
| C#CCOc1cc(C)nc(-n2cnc3cc(C)ccc32)n1 [Compound I-895] | B (Diseased area of less than 25%) |
| C#CCOc1cc(C)nc(-n2c(C(F)(F)F)nc3cc(C)ccc32)n1 [Compound I-903] | B (Diseased area of less than 25%) |
| C#CCOc1cc(C)nc(-n2c(N)nc3cc(C)ccc32)n1 [Compound I-904] | B (Diseased area of less than 25%) |
| CSc1nc(C)nc(-n2c(C)nc3cc(C)ccc32)n1 [Compound I-915] | A (No diseased area) |
| CCCc1cc(OC)nc(-n2cnc3ccccc32)n1 [Compound I-958] | B (Diseased area of less than 25%) |
| CCCc1cc(OC)nc(-n2c(C)nc3ccccc32)n1 [Compound I-959] | A (No diseased area) |
| CCCc1cc(OC)nc(-n2c(Cl)nc3ccccc32)n1 [Compound I-960] | A (No diseased area) |
| CCCc1cc(OC)nc(-n2cnc3cc(C)ccc32)n1 [Compound I-962] | A (No diseased area) |
| CCCc1cc(OC)nc(-n2c(C)nc3cc(Cl)ccc32)n1 [Compound I-964] | B (Diseased area of less than 25%) |
| CCCc1cc(OC)nc(-n2c(C)nc3cc(C)ccc32)n1 [Compound I-965] | A (No diseased area) |
| CCCc1cc(OC)nc(-n2c(C)nc3ccc(Cl)cc32)n1 [Compound I-967] | A (No diseased area) |
| CCCc1nc(OC)nc(-n2c(C)nc3cc(C)ccc32)n1 [Compound I-999] | A (No diseased area) |

| SMILES | Biological effectiveness |
| --- | --- |
| CCCc1nc(OC)nc(-n2c(C(F)(F)F)nc3cc(C)ccc32)n1 [Compound I-1004] | A (No diseased area) |
| COc1nc(C2CC2)nc(-n2c(C)nc3cc(C)ccc32)n1 [Compound I-1019] | A (No diseased area) |
| COc1nc(C2CC2)nc(-n2c(C(F)(F)F)nc3cc(C)ccc32)n1 [Compound I-1022] | A (No diseased area) |
| CSc1nc(SC)nc(-n2c(C)nc3cc(Cl)ccc32)n1 [Compound I-1043] | A (No diseased area) |
| CSc1nc(SC)nc(-n2c(C(F)(F)F)nc3cc(Cl)ccc32)n1 [Compound I-1046] | A (No diseased area) |
| CSc1nc(C)nc(-n2c(C(F)(F)F)nc3cc(C)ccc32)n1 [Compound I-1048] | A (No diseased area) |
| COc1nc(-c2ccccc2)nc(-n2c(C)nc3cc(C)ccc32)n1 [Compound I-1058] | A (No diseased area) |
| COc1nc(-c2ccccc2)nc(-n2c(C(F)(F)F)nc3ccc(C)cc32)n1 [Compound I-1059] | A (No diseased area) |
| Cc1nc2cc(Cl)c(Cl)cc2n1-c1nc(Cl)cc(Cl)n1 [Compound I-1064] | B (Diseased area of less than 25%) |
| Cc1nc2cc(Cl)ccc2n1-c1nc(N(C)C)nc(N(C)C)n1 [Compound I-1071] | A (No diseased area) |
| Cc1cc(C)nc(-n2cnc3ccccc32)n1 [Compound I-1079] | B (Diseased area of less than 25%) |
| Cc1cc(C(F)(F)F)nc(-n2cnc3ccccc32)n1 [Compound I-1082] | B (Diseased area of less than 25%) |
| CCc1cc(C)nc(-n2cnc3ccccc32)n1 [Compound I-1085] | A (No diseased area) |
| CCc1cc(C)nc(-n2cnc3cc(C)ccc32)n1 [Compound I-1086] | B (Diseased area of less than 25%) |
| CCc1cc(C)nc(-n2c(C)nc3cc(C)ccc32)n1 [Compound I-1087] | A (No diseased area) |
| CCc1cc(C)nc(-n2c(C)nc3cc(Cl)ccc32)n1 [Compound I-1088] | A (No diseased area) |
| CCc1cc(C)nc(-n2c(C)nc3ccc(Cl)cc32)n1 [Compound I-1090] | B (Diseased area of less than 25%) |
| CCc1cc(CC)nc(-n2cnc3ccccc32)n1 [Compound I-1093] | A (No diseased area) |
| CCc1cc(CC)nc(-n2cnc3cc(C)ccc32)n1 [Compound I-1094] | A (No diseased area) |
| CCc1cc(CC)nc(-n2c(C)nc3cc(C)ccc32)n1 [Compound I-1095] | A (No diseased area) |
| CCc1cc(CC)nc(-n2c(C)nc3cc(Cl)ccc32)n1 [Compound I-1096] | A (No diseased area) |
| CCc1cc(CC)nc(-n2c(C)nc3ccc(Cl)cc32)n1 [Compound I-1098] | A (No diseased area) |
| Cc1ccc2c(c1)nc(C)n2-c1nc(C)cc(C2CC2)n1 [Compound I-1103] | B (Diseased area of less than 25%) |
| Cc1cc(C2CC2)nc(-n2c(C)nc3cc(Cl)ccc32)n1 [Compound I-1104] | B (Diseased area of less than 25%) |
| Cc1cc(C2CC2)nc(-n2c(C)nc3ccc(Cl)cc32)n1 [Compound I-1106] | B (Diseased area of less than 25%) |
| CC#Cc1cc(C)nc(-n2cnc3ccccc32)n1 [Compound I-1123] | B (Diseased area of less than 25%) |
| Cc1cc(C#N)nc(-n2c(C)nc3ccccc32)n1 [Compound I-1147] | B (Diseased area of less than 25%) |
